Measured values: PMC11127902, “Rescuing tri-heteromeric NMDA receptor function: the potential of pregnenolone-sulfate in loss-of-function GRIN2B variants” (Cellular and Molecular Life Sciences: CMLS, 2024)
Like-named read-outs stand apart in the source and are kept apart here.

What was measured:
[1] = target: T1, Tri-heteromeric GluN2A-wt/GluN2B-G689C (Rattus norvegicus, UniProt P35439+Q00959+Q00960, A876H/F846L/G689C/G856D/H848F/K857R/M851T/M860L/Q845K/V861L); format: cell-based; details: glutamate dose-response
T1 construct: expressed in transfected cells; host or cells: Xenopus laevis oocytes, mRNA injection
Source text: (§1) Aliquots were thawed before each experiment.

[2] = test system: Tri-heteromeric GluN2A-wt/GluN2B-G689C; format: cell-based, rat; details: compared to GluN2A-wt + GluN2B-wt tri-heteromeric channels
Source text: as §1

[3] = target: T2, Tri-heteromeric GluN2A-wt/GluN2B-G689S (Rattus norvegicus, UniProt P35439+Q00959+Q00960, A876H/F846L/G689S/G856D/H848F/K857R/M851T/M860L/Q845K/V861L); format: cell-based; details: glutamate dose-response
T2 construct: expressed in transfected cells; host or cells: Xenopus laevis oocytes, mRNA injection
Source text: as §1

[4] = test system: Tri-heteromeric GluN2A-wt/GluN2B-G689S; format: cell-based, rat; details: compared to GluN2A-wt + GluN2B-wt tri-heteromeric channels
Source text: as §1

[5] = test system: wt di-heteromeric GluN2A NMDAR; details: glutamate, cited from earlier work
[6] = test system: wt di-heteromeric GluN2B NMDAR; details: glutamate, cited from earlier work
[7] = test system: wt tri-heteromeric GluN2A-wt/GluN2B-wt NMDAR; details: glutamate, cited from earlier work
[8] = test system: Mixed di-heteromeric GluN2A-wt/GluN2A-H485A; design: method as in PMID 24607230; details: glutamate; ref 8; cited from earlier work
[9] = test system: Mixed di-heteromeric GluN2A-wt/GluN2A-L812M; design: method as in PMID 24504326; details: glutamate; ref 39; cited from earlier work
[10] = test system: Mixed di-heteromeric GluN2A-wt/GluN2A-M817V; design: method as in PMID 28126851; details: glutamate; ref 91; cited from earlier work
[11] = test system: Mixed di-heteromeric GluN2B-wt/GluN2B-C461F; design: method as in PMID 27839871; details: glutamate; ref 21; cited from earlier work
[12] = test system: Mixed di-heteromeric GluN2B-wt/GluN2B-H486A; design: method as in PMID 24607230; details: glutamate; ref 8; cited from earlier work
[13] = test system: Pure variant di-heteromeric GluN2A-L812M; design: method as in PMID 24504326; details: glutamate; ref 39; cited from earlier work
[14] = test system: Pure variant di-heteromeric GluN2A-M817V; design: method as in PMID 28126851; details: glutamate; ref 91; cited from earlier work
[15] = test system: Pure variant di-heteromeric GluN2B-E413G; design: method as in PMID 27839871; details: glutamate; ref 21; cited from earlier work
[16] = test system: Pure variant di-heteromeric GluN2B-C461F; design: method as in PMID 27839871; details: glutamate; ref 21; cited from earlier work
[17] = test system: Pure variant di-heteromeric GluN2B-H486A; design: method as in PMID 24607230; details: glutamate; ref 8; cited from earlier work
[18] = test system: Pure variant di-heteromeric GluN2B-A639V; design: method as in PMID 35110392; details: glutamate; ref 10; cited from earlier work
[19] = test system: Pure variant di-heteromeric GluN2B-M818T; design: method as in PMID 28377535; details: glutamate; ref 25; cited from earlier work
[20] = test system: Pure variant di-heteromeric GluN2B-A819T; design: method as in PMID 28377535; details: glutamate; ref 25; cited from earlier work
[21] = test system: Pure variant di-heteromeric GluN2A-E551K; design: method as in PMID 35110392; details: glutamate; ref 10; cited from earlier work
[22] = test system: Pure variant di-heteromeric GluN2A-L649V; design: method as in PMID 35110392; details: glutamate; ref 10; cited from earlier work
[23] = test system: Mixed tri-heteromeric GluN2A-E551K/ GluN2B-wt; design: method as in PMID 35110392; details: glutamate; ref 10; cited from earlier work
[24] = test system: Mixed tri-heteromeric GluN2A-P552R/ GluN2B-wt; design: method as in PMID 35110392; details: glutamate; ref 10; cited from earlier work
[25] = test system: Mixed tri-heteromeric GluN2A-S644G/ GluN2B-wt; design: method as in PMID 35110392; details: glutamate; ref 10; cited from earlier work
[26] = test system: Mixed tri-heteromeric GluN2A-L649V/ GluN2B-wt; design: method as in PMID 35110392; details: glutamate; ref 10; cited from earlier work
[27] = test system: Mixed tri-heteromeric GluN2A-L812M/ GluN2B-wt; design: method as in PMID 35110392; details: glutamate; ref 10; cited from earlier work
[28] = test system: Mixed tri-heteromeric GluN2A-M817V/ GluN2B-wt; design: method as in PMID 35110392; details: glutamate; ref 10; cited from earlier work
[29] = test system: Mixed tri-heteromeric GluN2A-wt/ GluN2B-H486A; design: method as in PMID 24607230; details: glutamate; ref 8; cited from earlier work
[30] = test system: non-tagged purely di-heteromeric GluN2B-G689C; details: read-out: Glutamate EC50 (adapted from[16]); non-tagged human receptors; cited from earlier work
[31] = test system: non-tagged purely di-heteromeric GluN2B-G689S; details: read-out: Glutamate EC50 (adapted from[16]); non-tagged human receptors; cited from earlier work

T2 sequence (Q00960+Q00959 fused with the stated changes, other chains not shown): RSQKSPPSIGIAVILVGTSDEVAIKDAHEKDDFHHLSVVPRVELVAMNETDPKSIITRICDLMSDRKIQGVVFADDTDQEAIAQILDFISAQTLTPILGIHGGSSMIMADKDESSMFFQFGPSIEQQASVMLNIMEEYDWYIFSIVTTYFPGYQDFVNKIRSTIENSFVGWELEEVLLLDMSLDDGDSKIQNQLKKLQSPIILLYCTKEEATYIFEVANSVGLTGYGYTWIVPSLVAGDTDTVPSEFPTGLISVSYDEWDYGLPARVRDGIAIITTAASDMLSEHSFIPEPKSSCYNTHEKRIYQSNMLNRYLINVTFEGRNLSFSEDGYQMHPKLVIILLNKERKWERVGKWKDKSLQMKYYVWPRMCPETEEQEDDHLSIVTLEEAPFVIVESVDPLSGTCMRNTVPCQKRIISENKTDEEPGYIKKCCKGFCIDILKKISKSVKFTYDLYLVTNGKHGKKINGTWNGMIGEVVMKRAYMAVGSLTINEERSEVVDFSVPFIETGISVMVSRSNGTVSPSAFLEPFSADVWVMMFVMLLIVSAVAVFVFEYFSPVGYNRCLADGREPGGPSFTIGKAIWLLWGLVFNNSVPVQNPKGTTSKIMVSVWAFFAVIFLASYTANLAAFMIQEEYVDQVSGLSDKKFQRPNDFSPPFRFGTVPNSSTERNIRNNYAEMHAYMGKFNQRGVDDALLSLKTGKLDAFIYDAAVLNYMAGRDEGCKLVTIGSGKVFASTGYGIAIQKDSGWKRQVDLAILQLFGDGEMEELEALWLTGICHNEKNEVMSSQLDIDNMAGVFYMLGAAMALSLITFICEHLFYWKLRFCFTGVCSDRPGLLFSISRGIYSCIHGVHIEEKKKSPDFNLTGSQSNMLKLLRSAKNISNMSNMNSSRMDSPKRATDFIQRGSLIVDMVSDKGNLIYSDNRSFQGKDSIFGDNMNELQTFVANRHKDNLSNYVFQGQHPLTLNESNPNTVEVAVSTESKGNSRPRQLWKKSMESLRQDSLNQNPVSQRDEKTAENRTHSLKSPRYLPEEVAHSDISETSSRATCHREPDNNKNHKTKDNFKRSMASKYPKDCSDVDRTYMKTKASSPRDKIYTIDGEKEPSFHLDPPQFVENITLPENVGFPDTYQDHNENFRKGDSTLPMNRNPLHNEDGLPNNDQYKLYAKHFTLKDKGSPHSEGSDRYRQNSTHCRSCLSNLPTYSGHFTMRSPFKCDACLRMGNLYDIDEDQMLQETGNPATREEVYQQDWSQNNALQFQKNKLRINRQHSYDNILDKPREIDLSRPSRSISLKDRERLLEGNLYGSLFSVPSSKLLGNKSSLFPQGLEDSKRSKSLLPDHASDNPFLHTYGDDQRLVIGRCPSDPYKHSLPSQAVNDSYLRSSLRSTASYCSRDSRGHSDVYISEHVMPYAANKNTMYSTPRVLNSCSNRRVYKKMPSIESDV
T2 sequence (Q00959 23-1464, other chains not shown): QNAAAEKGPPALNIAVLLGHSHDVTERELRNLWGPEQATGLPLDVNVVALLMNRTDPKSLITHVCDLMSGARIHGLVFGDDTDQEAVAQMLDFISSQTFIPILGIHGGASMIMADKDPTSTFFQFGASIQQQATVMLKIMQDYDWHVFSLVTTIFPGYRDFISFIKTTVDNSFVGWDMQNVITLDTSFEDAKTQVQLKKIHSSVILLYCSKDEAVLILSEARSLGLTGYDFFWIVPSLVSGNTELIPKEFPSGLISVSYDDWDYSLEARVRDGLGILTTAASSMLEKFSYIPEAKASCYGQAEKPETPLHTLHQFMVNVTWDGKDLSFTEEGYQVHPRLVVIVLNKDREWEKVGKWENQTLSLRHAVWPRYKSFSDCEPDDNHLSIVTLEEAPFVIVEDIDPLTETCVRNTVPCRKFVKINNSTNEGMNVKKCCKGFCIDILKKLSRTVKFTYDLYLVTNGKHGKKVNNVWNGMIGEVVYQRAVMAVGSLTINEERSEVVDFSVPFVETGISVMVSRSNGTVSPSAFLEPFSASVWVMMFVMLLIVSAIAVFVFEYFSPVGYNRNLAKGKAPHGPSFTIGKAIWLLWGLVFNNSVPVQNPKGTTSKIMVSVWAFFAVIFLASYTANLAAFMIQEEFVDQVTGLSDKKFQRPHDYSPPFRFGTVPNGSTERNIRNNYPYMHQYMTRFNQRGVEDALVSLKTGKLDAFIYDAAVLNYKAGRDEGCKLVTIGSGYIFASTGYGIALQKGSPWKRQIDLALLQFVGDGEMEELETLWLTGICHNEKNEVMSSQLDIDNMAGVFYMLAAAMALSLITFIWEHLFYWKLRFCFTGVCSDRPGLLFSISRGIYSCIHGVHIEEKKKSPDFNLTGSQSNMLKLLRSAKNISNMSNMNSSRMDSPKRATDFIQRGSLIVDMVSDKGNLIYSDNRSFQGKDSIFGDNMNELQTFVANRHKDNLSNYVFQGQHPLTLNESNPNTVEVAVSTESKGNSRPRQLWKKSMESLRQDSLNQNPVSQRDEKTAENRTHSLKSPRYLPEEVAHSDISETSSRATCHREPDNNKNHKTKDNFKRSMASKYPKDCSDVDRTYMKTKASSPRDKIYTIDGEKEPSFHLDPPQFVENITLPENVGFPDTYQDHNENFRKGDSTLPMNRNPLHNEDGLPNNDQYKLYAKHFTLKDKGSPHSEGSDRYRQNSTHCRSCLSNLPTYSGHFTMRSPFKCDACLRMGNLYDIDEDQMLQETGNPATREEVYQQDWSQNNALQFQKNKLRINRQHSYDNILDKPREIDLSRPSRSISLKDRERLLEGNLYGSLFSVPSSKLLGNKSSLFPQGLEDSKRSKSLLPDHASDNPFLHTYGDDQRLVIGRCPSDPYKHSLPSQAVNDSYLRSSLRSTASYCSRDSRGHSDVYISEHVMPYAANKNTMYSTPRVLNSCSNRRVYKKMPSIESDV

SMILES: N[C@@H](CCC(=O)O)C(=O)O [Glutamate, glutamate]
- Hill coefficient (nH) [1]: 0.85 ± 0.14 n.s (N = 1, n = 10)
- increase in EC50 [2]: ~ 300 fold
- Hill coefficient (nH) [3]: 1.06 ± 0.13 n.s (N = 1, n = 11)
- increase in EC50 [4]: ~ 600 fold
- EC50 ([5]; ref 8): 4.2 µM
- EC50 ([5]; ref 19): 4.5 µM
- EC50 ([5]; ref 32): 3.9 µM
- EC50 ([5]; ref 33): 5.7 µM
- EC50 ([5]; ref 39): 4 µM
- EC50 ([5]; ref 91): 3.6 µM
- EC50 ([6]; control of GluN2B-E413G): 0.9 µM
- EC50 ([6]; ref 8): 1.6 µM
- EC50 ([7]; ref 8): 2.6 µM
- EC50 ([7]; ref 10): 2.2 µM
- EC50 [8]: 220 µM
- EC50 [9]: 1 µM
- EC50 [10]: 1.1 µM
- EC50 [11]: 61 µM
- EC50 [12]: 75 µM
- EC50 [13]: 0.39 µM
- EC50 [14]: 0.47 µM
- EC50 [15]: 82 µM
- EC50 [16]: 290 µM
- EC50 [17]: 460 µM
- EC50 [18]: 0.28 µM
- EC50 [19]: 0.37 µM
- EC50 [20]: 0.58 µM
- EC50 [21]: 0.47 µM
- EC50 [22]: 0.05 µM
- EC50 [23]: 0.7 µM
- EC50 [24]: 0.56 µM
- EC50 [25]: 0.49 µM
- EC50 [26]: 0.36 µM
- EC50 [27]: 0.84 µM
- EC50 [28]: 0.75 µM
- EC50 [29]: 140 µM
- EC50 [30]: 1500 ± 200 µM
- EC50 [31]: 2500 ± 400 µM
